“Also recorded” adds a separate entry of the source.
Tests used:
peptide-pulsed C1R-A03 [1] = test: IFN-gamma ELISPOT assay of peptide-induced CTLs (HLA-A*0301); format: cell-based, human; conditions: CTLs induced from HLA-A*0301-positive donors, peptide-pulsed C1R-A03 vs control
Excerpt: Monocyte-derived dendritic cells (DCs) were used as the antigen-presenting cell to induce a cytotoxic T lymphocyte (CTL) response against peptides presented on human leukocyte antigens (HLAs). As described in the other sections, DCs were generated in vitro (Nakahara S et al., Cancer Res 2003, 63(14): 4112-8). Specifically, peripheral-blood mononuclear cells isolated from healthy volunteers (HLA-A*0301-positive) with the Ficoll-Paque plus solution (Pharmacia) were separated by attaching to plastic tissue culture dishes (Becton Dickinson) and concentrated as a monocyte fraction. The monocyte-concentrated population was cultured in the presence of 1000 IU/ml granulocyte macrophage colony-stimulating factor (R&D System) and 1000 IU/ml interleukin(IL)-4 (R&D System) in an AIM-V medium (Invitrogen) containing 2% heat-inactivated autologous serum (AS). After seven days of culturing, the cytokine-induced DCs were pulsed with 20 micro-g/ml each of the synthesized peptides in an AIM-V medium at 37 degrees C. for three hours in the presence of 3 micro-g/ml beta 2-microglobulin. The generated cells appeared to express on their cell surface DC-associated molecules such as CD80, CD83, CD86 and HLA class II (data not shown). Next, these peptide-pulsed DCs were inactivated by X-ray irradiation (20 Gy), and mixed in a 1:20 ratio with autologous CD8^+ T cells obtained by positive selection using the CD8 Positive Isolation Kit (Dynal). These culture products were seeded in a 48-well plate (Corning). Each well was made to contain 1.5×10^4 peptide-pulsed DCs, 3×10^5 CD8^+ T cells and 10 ng/ml IL-7 (R&D System) in 0.5 ml of the AIM-V/2% AS medium. Three days later, these culture products were added with a final concentration of 20 IU/ml IL-2 (CHIRON). On day 7 and day 14, T cells were further stimulated with peptide-pulsed autologous DCs. The DCs were prepared every time by the same method as above. On day 21, after the third peptide stimulation, CTLs were examined against the peptide-pulsed C1R-A03 by a human interferon (IFN)-gamma enzyme-linked immunospot (ELISPOT) assay (Tanaka H et al., Br J Cancer 2001, 84(1): 94-9; Umano Y et al., Br J Cancer 2001, 84(8): 1052-7; Uchida N et al., Clin Cancer Res 2004, 10(24): 8577-86; Suda T et al., Cancer Sci 2006, 97(5): 411-9; Watanabe T et al., Cancer Sci 2005, 96(8): 498-506).
(§1) Specifically, peptide-pulsed C1R-A03 (1×10^4 cells/well) was prepared as the stimulator cell. The induced CTLs, i.e., CTL lines and CTL clones, were used as the responder cell. The IFN-gamma ELISPOT assay and IFN-gamma ELISA were performed according to the manufacturer's manual.

[2] = system: COS7 cells transfected with CDCA1 and HLA-A*0301; test: Specific CTL activity against target cells expressing CDCA1 and HLA-A*0301; format: cell-based, African green monkey; conditions: for specific CTL activity of CTL clones: COS7 cells transfected with both CDCA1 and HLA-A*0301; for specific CTL activity of CTL clones against control cells: COS7 cells transfected with either full-length CDCA1 or HLA-A*0301
Excerpt: A cDNA encoding the open-reading frame of a target gene or HLA-A*0301 was amplified by PCR. The PCR-amplified product was cloned into an expression vector. Either or both of the target gene-expressing vector and the HLA-A*0301-expressing vector were transfected into COS7, which is a cell line negative for the target gene and HLA, using Lipofectamine 2000 (Invitrogen) following the manufacturer's recommended protocol. Two days after transfection, the transfected cells were harvested using versene (Invitrogen), and used as the target cell for CTL activity assay (5×10^4 cells/well).
The CTL clones established against CDCA1-A03-9-219 (SEQ ID NO: 7) (a) and CDCA1-A03-10-400 (SEQ ID NO: 38) (b) were investigated for their ability to recognize target cells expressing CDCA1 and the HLA-A*0301 molecule. COS7 cells transfected with both full-length CDCA1 and the HLA-A*0301 gene (a specific model of target cells expressing CDCA1 and the HLA-A*0301 gene) were prepared as the target cell. COS7 cells transfected with either full-length CDCA1 or HLA-A*0301 were prepared as the control.

peptide-pulsed C1R-A03 [3] = test: IFN-gamma ELISA of CTL lines and CTL clones (HLA-A*0301); format: cell-based, human; conditions: for IFN-gamma production of CTL clones: CTL clones by limiting dilution; for IFN-gamma production of CTL lines: peptide-pulsed vs non-pulsed target cells, HLA-A*0301
Description: CTLs were propagated in culture using methods similar to those disclosed by Riddell et al. (Walter E A et al., N Engl J Med 1995, 333(16): 1038-44; Riddell S R et al., Nat Med 1996, 2(2): 216-23). The CTLs were co-cultured in a total of 25 ml AIM-V medium containing 5% AS (AIM-V/5% AS) and 40 ng/ml anti-CD3 antibody with two types of Mitomycin C-treated human B lymphoblastoid cell lines at 5×10^6 cells/flask. One day after beginning of the culturing, 120 IU/ml IL-2 was added to the culture. On days 5, 8 and 11, a fresh AIM-V/5% AS medium containing 30 IU/ml IL-2 was added to the culture (Tanaka H et al., Br J Cancer 2001, 84(1): 94-9; Umano Y et al., Br J Cancer 2001, 84(8): 1052-7; Uchida N et al., Clin Cancer Res 2004, 10(24): 8577-86; Suda T et al., Cancer Sci 2006, 97(5): 411-9; Watanabe T et al., Cancer Sci 2005, 96(8): 498-506).
Dilution of CTLs was carried out to make 0.3, 1 and 3 cells/well in 96 round-bottomed microtiter plates (Nalge Nunc International). The CTLs were co-cultured with two types of Mitomycin C-treated human B lymphoblastoid cell lines at 1×10^4 cells/well in a total of 150 micro-l/well AIM-V/5% AS medium with 30 ng/ml anti-CD3 antibody and 125 IU/ml IL-2. Ten days later, IL-2 was added to the medium at 50 micro-l/well to reach a final concentration of 125 IU/ml. On day 14, the CTL activity was tested, and the CTL clones were propagated using the same method as described above (Uchida N et al., Clin Cancer Res 2004, 10(24): 8577-86; Suda T et al., Cancer Sci 2006, 97(5): 411-9; Watanabe T et al., Cancer Sci 2005, 96(8): 498-506).
as §1

Sequence | peptide-specific CTL activity (IFN-gamma production) (peptide-pulsed C1R-A03 [1]; listed as CDCA1-A03-10-400) | specific CTL activity of CTL clones ([2]; listed as CDCA1-A03-10-400) | specific CTL activity of CTL clones against control cells ([2]; listed as CDCA1-A03-10-400) | IFN-gamma production of CTL clones (peptide-pulsed C1R-A03 [3]; peptide-pulsed C1R-A03, listed as CDCA1-A03-10-400) | IFN-gamma production of CTL lines (peptide-pulsed C1R-A03 [3]) | peptide-specific CTL activity (IFN-gamma production) (peptide-pulsed C1R-A03 [1]; listed as CDCA1-A03-9-219) | specific CTL activity of CTL clones ([2]; listed as CDCA1-A03-9-219) | specific CTL activity of CTL clones against control cells ([2]; listed as CDCA1-A03-9-219) | IFN-gamma production of CTL clones (peptide-pulsed C1R-A03 [3]; peptide-pulsed C1R-A03, listed as CDCA1-A03-9-219)
KIKLGIQQLK (a peptide derived from CDCA1) [SEQ ID NO: 38] | potent IFN-gamma production; also recorded: significant specific CTL activity | specific CTL activity; also recorded: potent CTL activity | a significant specific CTL activity was not shown; also recorded: a significant specific CTL activity was not detected | Potent IFN-gamma production | potent IFN-gamma production |  |  |  | 
KTKRLNELK (a peptide derived from CDCA1) [SEQ ID NO: 7] |  |  |  |  | potent IFN-gamma production | potent IFN-gamma production; also recorded: significant specific CTL activity | specific CTL activity; also recorded: potent CTL activity | a significant specific CTL activity was not shown; also recorded: a significant specific CTL activity was not detected | Potent IFN-gamma production

Source: US10676514B2, “CDCA1-derived peptide and vaccine containing same” (ONCOTHERAPY SCIENCE, INC., priority 2014, dated 2020)
